Data: article PMC8875489, “Pharmaceutical and Safety Profile Evaluation of Novel Selenocompounds with Noteworthy Anticancer Activity” (Pharmaceutics, 2022)
Read-outs that look alike come from different tables or passages of the source.

Tests used:
[1] = PAMPA membrane permeability test (capillary electrophoresis); format: in vitro ADME; details: for Papp at 5 h, 50 µM: 50 μM in PBS pH 7.4, 5 h, room temperature, read-out: In Vitro Permeability; for % Perm. (percentage that crossed from the donor well to the acceptor well): 5 h
Procedure: The passive transport and membrane absorption of 5 selected selenocompounds (EDA-58, EDA-71, EDA-119, EDA-122, and EDA-A6) were evaluated with the in vitro parallel artificial membrane permeability assay (PAMPA). This PAMPA assay could provide better predictability and membrane permeability correlations compared to the data obtained for human absorption in the Caco-2 cell line. The Precoated PAMPA Plate System Gentest™ (Corning, Bradford, MA, USA) was used to perform the permeability assay for the 5 selected Se compounds. The protocol of the permeability assay was similar to the previously described ones and is detailed in the Supplementary Materials.
Five selenocompounds (EDA-58, EDA-71, EDA-119, EDA-122, and EDA-A6) were evaluated with the PAMPA in vitro assay using the CE technique.
[formula] Scheme 1 Calculation of the in vitro permeability (cm/s). A (filter area) cm^2 = 0.3; VD (donor well volume) mL = 0.3; VA (acceptor well volume) mL = 0.2; t (incubation time) seconds = 18,000; CA(t) (compound concentration in acceptor well at time t); CD(t) (compound concentration in donor well at time t). […]
1.3. PAMPA test: membrane permeability evaluation.
The passive transport and the membrane absorption of 5 selected selenocompounds (EDA-58, EDA-71, EDA-119, EDA-122, EDA-A6) were evaluated in the in vitro Parallel Artificial Membrane Permeability Assay (PAMPA). The protocol of the permeability assay was similar to the ones previously described.
1.3.1. Stock solutions and sample preparation for PAMPA test
Working solutions of the tested compounds at the concentration of the 50 μM in the phosphate saline buffer (PBS, pH 7.4) were prepared from the stocks in the pure dimethyl sulfoxide (DMSO) and stored at -20° C. Moreover, to draw the precise calibration curves for each tested (EDA-58, EDA-71, EDA-119, EDA-122, EDA-A6) and reference com- […]
The Precoated PAMPA Plate System Gentest™ (Corning, Bradford, MA, USA) was used to perform permeability assay for the 5 selected Se-compounds. The essential part of […]
solvents. PAMPA Plate System was brought to room temperature 30 min before use.
The 96-well filter plate precoated with lipids was used as a permeation acceptor, whereas the 96-well receiver plate acted as the permeation donor plate. Therefore, the compound solutions were added to the wells (300 μL/well) of the receiver plate and PBS was added to wells (200 μL/well) of the precoated filter plate.
Then, the filter plate was coupled with the receiver plate and both were incubated at room temperature for five hours without agitation. […] Fi-nally, the permeability coefficients (Pe, [cm/s]) of the tested compounds were estimated using the formula provided by the PAMPA Plate System manufacturer.
1.3.3. Capillary electrophoresis (CE) analytical method […]
were calculated in both the donor and acceptor compartments using the capillary electro-

[2] = tested on: Salmonella Typhimurium TA100 strain; details: for Fold Increase over Baseline / MI (mutagenic index) / B (binomial B value) / cytotoxic effect label beside B value: TA100; for Fold Increase over Baseline: alert ≥ 2.0; for MI (mutagenic index): mutagenic if MI ≥ 2; for B (binomial B value): threshold ≥ 0.99; for mutagenicity conclusion in Ames test: TA100, 1 and 10 µM
Procedure: Safety profiles were evaluated using an in vitro microbiological method adapted to the microplate Ames test (384-well microtitration plate), which applies Salmonella enterica serovar Typhimurium bacterial strains (the gold standard in mutagenicity research). The experiment was performed according to a previously described protocol, which is provided in the Supplementary Materials. Briefly, the TA 100 strain (deprived of the ability to synthesize the histidine) was incubated with each tested compound in an exposure medium containing a limited amount of histidine. The reversion events were counted both manually and by means of a microplate reader. Each fold increase bigger than two times the baseline level (≥2.0-fold) was considered to indicate a mutagen alert. The experiments and data analyses were prepared according to the procedure that was previously described by Flückiger-Isler et al.. The assay was performed in triplicate. The positive control selected for the mutagenicity assays was NQNO, which causes genome point mutations; specifically, it promotes G:C → A:T transitions in the Salmonella Typhimurium TA-100 strain and other bacteria such as Vibrio harveyi and Escherichia coli.
In the next step of the studies, the in vitro safety profiles of the tested selenocompounds were evaluated. All compounds were tested with the 384-well plate microfluctuation Ames test. The mutagenic index (MI) was used as the measure of mutagenicity.
1.5. Safety profile evaluation - Ames microplate mutagenicity assay
Safety profile was evaluated by the means of in vitro microbiological methods – adapted to microplate Ames test, which applies Salmonella enterica serovar Typhimurium bacterial strains (the gold standard in mutagenicity research).
1.5.1. Compounds preparation
To evaluate the impact of tested compounds and of references on Salmonella enterica serovar Typhimurium (onwards Salmonella Typhimurium) TA-100 strain growth by means of the Ames test, the compounds or the reference were dissolved in the pure DMSO, to obtain the corresponding 10 mM stock solutions. Working solutions for tested compounds (25 μM and 250 μM concentrations) were prepared before the assay in DMSO.
1.5.2. Microplate Ames mutagenicity assay protocol
Prior to the experiment, Salmonella Typhimurium was cultured overnight (NB-2 liq-uid medium in the presence of 25 μg/mL ampicillin). At the day of the experiment, fresh dilutions of the tested compounds (25 μM and 250 μM), reference compound (methylse-leninic acid) and standard mutagen (4-nitroquinoline-N-oxide at 2.5 μM and 12.5 μM) in DMSO were prepared. The positive control selected for the mutagenicity assays was NQNO, which causes point mutations at the genome. Specifically, it promotes G:C → A:T transitions in Salmonella Typhimurium TA-100 strain and in the other bacteria such as Vib-rio harveyi and Escherichia coli.
The mutagenic potential of the tested derivatives was evaluated by the incubation of the abovementioned bacteria (deprived of the ability to synthesize the histidine) with spe-cific concentrations of the tested compounds (for 90 min in the exposure medium), con-taining a limited amount of histidine (enough to provide approximately 2-3 cell divisions).
The occurrence of reversion events to histidine prototrophy was observed through the bacterial growth in the indicator medium without histidine after 48 h of incubation in temperature of 37° C [45]. The final compound and the mutagenic agent concentrations in each single well of a 384 well plate were 1 μM and 10 μM for the compounds; and 0.1 μM and 0.5 μM for the mutagen. Lastly, both a manual count and a microplate reader were used to obtain the results. The medium control baseline (MCB) was estimated as the mean number of revertants in the medium control plus one standard deviation. Each fold in-crease bigger than two times the baseline level ≥ 2.0 was considered as a mutagen alert.

SMILES: C[Se]C(=O)c1cccc(C(=O)[Se]C)n1 [EDA-119, Se,Se-dimethyl pyridine-2,6-bis(carboselenoate)]
- permeability compared with caffeine [1]: lower permeability values than caffeine
- Papp at 5 h, 50 µM [1]: 3.27 ×10⁻⁶ cm/s
- % Perm. (percentage that crossed from the donor well to the acceptor well) [1]: 5.79%
- Fold Increase over Baseline ([2]; 1 µM): 0.54
- MI (mutagenic index) ([2]; 1 µM): 0.56
- B (binomial B value) ([2]; 1 µM): 0.24
- Fold Increase over Baseline ([2]; 10 µM): 0.92
- MI (mutagenic index) ([2]; 10 µM): 0.96
- B (binomial B value) ([2]; 10 µM): 0.90

SMILES: O=C1[Se]C(=O)c2ccccc21 [EDA-A6, benzo[c]selenophene-1,3-dione]
- permeability compared with caffeine [1]: higher permeability values than caffeine
- Papp at 5 h, 50 µM [1]: 3.44 ×10⁻⁶ cm/s
- % Perm. (percentage that crossed from the donor well to the acceptor well) [1]: 6.08%
- Fold Increase over Baseline ([2]; 1 µM): 1.08
- MI (mutagenic index) ([2]; 1 µM): 1.23
- B (binomial B value) ([2]; 1 µM): 0.94
- cytotoxicity for Salmonella Typhimurium in Ames test ([2]; 10 µM): could have been cytotoxic
- cytotoxic effect label beside B value ([2]; 10 µM): C (data points that are significantly smaller (B ≤ 0.01 (bolded)) than the mean number of spontaneous revertants are labelled C for “cytotoxic effect”)
- Fold Increase over Baseline ([2]; 10 µM): 0.33
- MI (mutagenic index) ([2]; 10 µM): 0.38
- B (binomial B value) ([2]; 10 µM): 0.001

SMILES: COC(=O)C[Se]C(=O)c1cc(OC)c(OC)c(OC)c1 [EDA-26, methyl 2-((3,4,5-trimethoxybenzoyl)selanyl)acetate]
- Fold Increase over Baseline ([2]; 1 µM): 0.96
- MI (mutagenic index) ([2]; 1 µM): 1.51
- B (binomial B value) ([2]; 1 µM): 0.92
- Fold Increase over Baseline ([2]; 10 µM): 1.37
- mutagenicity conclusion in Ames test [2]: may have had mutagenic potential

SMILES: COC(=O)C[Se]C(=O)c1cc(OC)cc(OC)c1 [EDA-58, methyl 2-((3,5-dimethoxybenzoyl)selanyl)acetate]
- permeability compared with caffeine [1]: lower permeability values than caffeine
- Papp at 5 h, 50 µM [1]: 2.22 ×10⁻⁶ cm/s
- % Perm. (percentage that crossed from the donor well to the acceptor well) [1]: 3.95%
- Fold Increase over Baseline ([2]; 1 µM): 0.67
- MI (mutagenic index) ([2]; 1 µM): 0.57
- B (binomial B value) ([2]; 1 µM): 0.80
- Fold Increase over Baseline ([2]; 10 µM): 1.78
- MI (mutagenic index) ([2]; 10 µM): 1.51
- B (binomial B value) ([2]; 10 µM): 1.00

SMILES: CC(=O)C[Se]C(=O)c1ccc(Cl)cc1 [EDA-71, Se-(2-oxopropyl) 4-chlorobenzoselenoate]
- permeability compared with caffeine [1]: higher permeability values than caffeine
- Papp at 5 h, 50 µM [1]: 3.86 ×10⁻⁶ cm/s
- % Perm. (percentage that crossed from the donor well to the acceptor well) [1]: 6.81%
- Fold Increase over Baseline ([2]; 1 µM): 0.60
- MI (mutagenic index) ([2]; 1 µM): 0.54
- B (binomial B value) ([2]; 1 µM): 0.34
- Fold Increase over Baseline ([2]; 10 µM): 0.89
- MI (mutagenic index) ([2]; 10 µM): 0.79
- B (binomial B value) ([2]; 10 µM): 0.98

SMILES: C[Se]C(=O)c1cccc(C(=O)[Se]C)c1 [EDA-120, Se,Se-dimethyl benzene-1,3-bis(carboselenoate)]
- MI (mutagenic index) ([2]; 1 µM): 1.24
- B (binomial B value) ([2]; 1 µM): 1.00
- MI (mutagenic index) ([2]; 10 µM): 1.46
- B (binomial B value) ([2]; 10 µM): 1.00
- mutagenicity conclusion in Ames test [2]: non-mutagenic

SMILES: C[Se]C(=O)c1ccc(C(=O)[Se]C)s1 [EDA-122, Se,Se-dimethyl thiophene-2,5-bis(carboselenoate)]
- permeability compared with caffeine [1]: higher permeability values than caffeine
- Papp at 5 h, 50 µM [1]: 4.67 ×10⁻⁶ cm/s
- % Perm. (percentage that crossed from the donor well to the acceptor well) [1]: 8.20%
- Fold Increase over Baseline ([2]; 1 µM): 0.63
- MI (mutagenic index) ([2]; 1 µM): 0.84
- B (binomial B value) ([2]; 1 µM): 0.14
- Fold Increase over Baseline ([2]; 10 µM): 1.08
- MI (mutagenic index) ([2]; 10 µM): 1.46
- B (binomial B value) ([2]; 10 µM): 0.94

SMILES: C[Se]C(=O)c1ccc(C(=O)[Se]C)cc1 [EDA-109, Se,Se-dimethyl benzene-1,4-bis(carboselenoate)]
- Fold Increase over Baseline ([2]; 1 µM): 0.55
- MI (mutagenic index) ([2]; 1 µM): 0.96
- B (binomial B value) ([2]; 1 µM): 0.07
- cytotoxicity for Salmonella Typhimurium in Ames test ([2]; 10 µM): cytotoxic activity was observed
- cytotoxic effect label beside B value ([2]; 10 µM): C (data points that are significantly smaller (B ≤ 0.01 (bolded)) than the mean number of spontaneous revertants are labelled C for “cytotoxic effect”)
- Fold Increase over Baseline ([2]; 10 µM): 0.39
- MI (mutagenic index) ([2]; 10 µM): 0.67

SMILES: O=C(C[Se]C(=O)c1ccccc1)Oc1ccccc1 [EDA-93, phenyl 2-(benzoylselanyl)acetate]
- Fold Increase over Baseline ([2]; 1 µM): 1.02
- MI (mutagenic index) ([2]; 1 µM): 1.27
- B (binomial B value) ([2]; 1 µM): 0.96
- Fold Increase over Baseline ([2]; 10 µM): 0.87
- MI (mutagenic index) ([2]; 10 µM): 1.08
- B (binomial B value) ([2]; 10 µM): 0.80

SMILES: COc1cc(OC)cc(C(=O)[Se]CC(=O)C(C)(C)C)c1 [EDA-74, Se-(3,3-dimethyl-2-oxobutyl) 3,5-dimethoxybenzoselenoate]
- Fold Increase over Baseline ([2]; 1 µM): 0.98
- MI (mutagenic index) ([2]; 1 µM): 0.88
- B (binomial B value) ([2]; 1 µM): 0.94
- Fold Increase over Baseline ([2]; 10 µM): 0.76
- MI (mutagenic index) ([2]; 10 µM): 0.69
- B (binomial B value) ([2]; 10 µM): 0.68

SMILES: CC(C)(C)C(=O)C[Se]C(=O)c1ccc(Cl)cc1 [EDA-73, Se-(3,3-dimethyl-2-oxobutyl) 4-chlorobenzoselenoate]
- Fold Increase over Baseline ([2]; 1 µM): 0.84
- MI (mutagenic index) ([2]; 1 µM): 1.28
- B (binomial B value) ([2]; 1 µM): 0.72
- Fold Increase over Baseline ([2]; 10 µM): 0.52
- MI (mutagenic index) ([2]; 10 µM): 0.79
- B (binomial B value) ([2]; 10 µM): 0.04
